≈ marks a conversion by molar mass, not a printed value.
Experiments:
[1] = system: mouse leukemia L-1210 cells; assay: growth inhibitory activity to cancer cells in vitro (L-1210, 48 hours); type: cell-based; conditions: for inhibition at 1.25 µg/mL: L1210, 1.25 mcg/ml; for inhibition at 1.25 µg/mL / inhibition at 2.5 µg/mL / inhibition at 5 µg/mL / inhibition at 10 µg/mL / inhibition at 20 µg/mL / inhibition at 40 µg/mL / inhibition at 80 µg/mL: read-out: Growth inhibition (%), (1-T/C) × 100; for inhibition at 2.5 µg/mL: L1210, 2.5 mcg/ml; for inhibition at 5 µg/mL: L1210, 5 mcg/ml; for inhibition at 10 µg/mL: L1210, 10 mcg/ml; for inhibition at 20 µg/mL: L1210, 20 mcg/ml; for inhibition at 40 µg/mL: L1210, 40 mcg/ml; for inhibition at 80 µg/mL: L1210, 80 mcg/ml; for IC50: L1210, L-1210 cells, read-out: 50% inhibitory concentration
Summary of the method: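 L-1210 cells from DBA/2 mouse ascites, cultured at 5×10^4 cells per well in RPMI 1640 with 10% FCS and 5 μM 2-mercaptoethanol, 37° C, CO2, for 48 h with compound. Cell counts by Coulter Counter gave % inhibition (1−T/C)×100, and IC50 was derived across concentrations.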

[2] = acute toxicity in mice (single intraperitoneal administration); conditions: mouse, in vivo, ip; mice, single i.p.; read-out: LD50 (median lethal dose on single administration)
Description: In Table 8 median lethal doses (LD50) of typical compounds of this invention are shown, measured in mice upon single intraperitoneal administration, as well as maximum tolerated doses in terms of total dose when a fixed amount per unit body weight was administered intraperitoneally to mice once a day for 6 consecutive days.
*Median lethal dose on single administration.

mouse leukemia L-1210 = assay: therapeutic effect on implanted cancer in mice (L-1210, survival over 30 days); type: in vivo, mouse (BDF1); conditions: L1210, ip, 720 h, 6 days; for responders at 0.2 mg/kg / response vs control in vivo at 0.2 mg/kg: 0.20 mg/kg/day i.p.; for responders at 0.2 mg/kg / responders at 0.39 mg/kg / responders at 0.78 mg/kg / responders at 1.56 mg/kg / responders at 3.13 mg/kg / responders at 6.25 mg/kg / responders at 12.5 mg/kg / responders at 25 mg/kg / responders at 50 mg/kg: read-out: Number of mice survived for 30 days (converted); for response vs control in vivo at 0.2 mg/kg / response vs control in vivo at 0.39 mg/kg / response vs control in vivo at 0.78 mg/kg / response vs control in vivo at 1.56 mg/kg / response vs control in vivo at 3.13 mg/kg / response vs control in vivo at 6.25 mg/kg / response vs control in vivo at 12.5 mg/kg / response vs control in vivo at 25 mg/kg / response vs control in vivo at 50 mg/kg: read-out: Prolongation of survival period (%), T/C × 100; for responders at 0.39 mg/kg / response vs control in vivo at 0.39 mg/kg: 0.39 mg/kg/day i.p.; for responders at 0.78 mg/kg / response vs control in vivo at 0.78 mg/kg: 0.78 mg/kg/day i.p.; for responders at 1.56 mg/kg / response vs control in vivo at 1.56 mg/kg: 1.56 mg/kg/day i.p.; for responders at 3.13 mg/kg / response vs control in vivo at 3.13 mg/kg: 3.13 mg/kg/day i.p.; for responders at 6.25 mg/kg / response vs control in vivo at 6.25 mg/kg: 6.25 mg/kg/day i.p.; for responders at 12.5 mg/kg / response vs control in vivo at 12.5 mg/kg: 12.5 mg/kg/day i.p.; for responders at 25 mg/kg / response vs control in vivo at 25 mg/kg: 25 mg/kg/day i.p.; for responders at 50 mg/kg / response vs control in vivo at 50 mg/kg: 50 mg/kg/day i.p.
Summary of the method: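 Male BDF1 mice aged 5 weeks received an intraperitoneal inoculation of 10^5 L-1210 mouse leukemia cells. Starting on the inoculation day, test compounds dissolved in physiological saline were injected intraperitoneally once daily for 6 consecutive days, and animals were then followed for 30 days to record survival.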

[3] = cumulative toxicity in mice (maximum tolerated dose, once a day for 6 consecutive days); conditions: mouse, in vivo, ip, i.p. once a day for 6 consecutive days, total dose, read-out: Maximum Tolerated Dose (total dose not causing death)
Summary of the method: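 Mice dosed intraperitoneally once a day for 6 consecutive days with a fixed amount per unit body weight. The value is the maximum total dose not causing death.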

Compound	inhibition at 1.25 µg/mL [1]	inhibition at 2.5 µg/mL [1]	inhibition at 5 µg/mL [1]	inhibition at 10 µg/mL [1]	inhibition at 20 µg/mL [1]	inhibition at 40 µg/mL [1]	inhibition at 80 µg/mL [1]	IC50 [1]	LD50 [2]	responders at 1.56 mg/kg (mouse leukemia L-1210)	response vs control in vivo at 1.56 mg/kg (mouse leukemia L-1210)	responders at 3.13 mg/kg (mouse leukemia L-1210)	response vs control in vivo at 3.13 mg/kg (mouse leukemia L-1210)	responders at 6.25 mg/kg (mouse leukemia L-1210)	response vs control in vivo at 6.25 mg/kg (mouse leukemia L-1210)	responders at 12.5 mg/kg (mouse leukemia L-1210)	response vs control in vivo at 12.5 mg/kg (mouse leukemia L-1210)	responders at 25 mg/kg (mouse leukemia L-1210)	response vs control in vivo at 25 mg/kg (mouse leukemia L-1210)	MTD [3]	also measured
COC(NC(=O)C=CCCCCNC(=N)N)C(=O)NCCCCNCCCN (stereo not drawn) [Compound 19, N-[4-(3-aminopropyl)aminobutyl]-2-(7-guanidino-2-heptenamido)-2-methoxyethanamide]	29.9%	32.2%	46.4%	56.4%	75.6%	85.4%	93.1%	6.3 µg/mL (≈ 15.8 µM)	12.5 to 25 mg/kg	50%	> 350%	50%	> 321%	75%	> 429%	50%	> 364%	0%	0%	> 75 mg/kg	responders at 0.2 mg/kg (mouse leukemia L-1210): 0%; response vs control in vivo at 0.2 mg/kg (mouse leukemia L-1210): 100%; responders at 0.39 mg/kg (mouse leukemia L-1210): 0%; response vs control in vivo at 0.39 mg/kg (mouse leukemia L-1210): 107%; responders at 0.78 mg/kg (mouse leukemia L-1210): 0%; response vs control in vivo at 0.78 mg/kg (mouse leukemia L-1210): 164%
N=C(N)NCCCCCCC(O)CC(=O)NC(O)C(=O)NCCCCNCCCN (stereo not drawn) [Compound 21, N-[4-(3-aminopropyl)aminobutyl]-2-(9-guanidino-3-hydroxynonanamido)-2-hydroxyethanamide]	14.6%	21.5%	29.7%	37.5%	51.6%	84%	94.5%	18 µg/mL (≈ 41.7 µM)	25 to 50 mg/kg	0%	114%	0%	129%	0%	164%	0%	200%	0%	229%	> 150 mg/kg	responders at 0.2 mg/kg (mouse leukemia L-1210): 0%; response vs control in vivo at 0.2 mg/kg (mouse leukemia L-1210): 100%; responders at 0.39 mg/kg (mouse leukemia L-1210): 0%; response vs control in vivo at 0.39 mg/kg (mouse leukemia L-1210): 100%; responders at 0.78 mg/kg (mouse leukemia L-1210): 0%; response vs control in vivo at 0.78 mg/kg (mouse leukemia L-1210): 100%; responders at 50 mg/kg (mouse leukemia L-1210): 0%; response vs control in vivo at 50 mg/kg (mouse leukemia L-1210): 0%
COC(NC(=O)C[C@@H](O)CCCCNC(=N)N)C(=O)NCCCCNCCCN (stereo partly drawn) [Compound 22, N-[4-(3-aminopropyl)aminobutyl]-2-(7-guanidino-3-hydroxyheptanamido)-2-methoxyethanamide]	–	60.8%	82.6%	94.5%	96.9%	98.3%	–	1.8 µg/mL (≈ 4.31 µM)	25 to 50 mg/kg	0%	117%	0%	163%	50%	> 332%	62.5%	> 380%	75%	> 414%	> 150 mg/kg	responders at 50 mg/kg (mouse leukemia L-1210): 0%; response vs control in vivo at 50 mg/kg (mouse leukemia L-1210): 7%
CCOC(NC(=O)C[C@@H](O)CCCCNC(=N)N)C(=O)NCCCCNCCCN (stereo partly drawn) [Compound 23, N-[4-(3-aminopropyl)aminobutyl]-2-(7-guanidino-3-hydroxyheptanamido)-2-ethoxyethanamide]	–	58.5%	85.5%	93%	96.1%	96.4%	–	2.2 µg/mL (≈ 5.1 µM)	> 25 mg/kg	–	–	0%	104%	0%	119%	0%	129%	0%	200%	> 150 mg/kg	–

Source: patent publication US4983328A, “N-(4-(3-aminopropyl)aminobutyl)-2-(ω-gua nidino-fatty-acid-amido(-2-substituted-ethanamide, salt thereof, and process for preparation thereof” (Bristol-Myers Company, priority 1981, dated 1991)
